The test concerns the target MOR-Venus (mu opioid receptor fused to Venus-YFP) (Mus musculus, UniProt P42866). The experiment in a line: Galphai2/Ggamma2 BRET2 dissociation assay, HEK293. The class given is cell-based. The note with it: agonist, 10 min stimulation. On the technique in general: BRET reads energy transfer from a luciferase to a nearby fluorophore.

Chain of MOR-Venus (mu opioid receptor fused to Venus-YFP) (P42866 whole entry, the tested form may be a part): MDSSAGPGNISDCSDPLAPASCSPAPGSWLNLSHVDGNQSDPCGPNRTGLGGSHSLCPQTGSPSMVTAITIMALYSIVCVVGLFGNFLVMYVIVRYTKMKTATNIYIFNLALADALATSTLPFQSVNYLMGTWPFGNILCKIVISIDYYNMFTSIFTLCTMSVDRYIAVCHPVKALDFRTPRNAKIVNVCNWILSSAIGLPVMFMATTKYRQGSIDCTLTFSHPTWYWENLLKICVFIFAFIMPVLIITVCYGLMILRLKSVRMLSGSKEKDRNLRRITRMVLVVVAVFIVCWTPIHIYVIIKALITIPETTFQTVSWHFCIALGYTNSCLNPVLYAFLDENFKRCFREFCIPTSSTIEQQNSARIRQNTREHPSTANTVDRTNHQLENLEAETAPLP

As for `COc1ccc2c3c1O[C@H]1C(=O)CC[C@@]4(O)[C@@H](C2)N(C)CC[C@]314` [oxycodone], the EC50 entry is given as “except for oxycodone, which had a trend of lower potency”.

The record behind these values is article PMC6439305 (iScience, 2019).
